Experimental data reported in ChEMBL document CHEMBL1201862, “PubChem BioAssay data set” (2004).
Activity calls are given as the source filed them.

Tests used:
[1] = biological target: Beta-galactosidase (Escherichia coli, UniProt Q8VNN2); experiment: Dose response counterscreen for EBI2 assay utilizing the enzyme, b-galactosidase.; format: functional
[2] = biological target: Prothrombin (Homo sapiens, UniProt P00734); experiment: Thrombin 1536 HTS Dose Response Confirmation. [Related pubchem assays: 1046 (Thrombin 1536 HTS; hits were confirmed in this assay)]; format: functional
[3] = biological target: Mitogen-activated protein kinase 10 (Homo sapiens, UniProt P53779); experiment: Dose response biochemical screening assay for inhibitors of c-Jun N-Terminal Kinase 3 (JNK3). [Related pubchem assays: 746 ]
Mitogen-activated protein kinase 10, sequence (P53779 whole entry): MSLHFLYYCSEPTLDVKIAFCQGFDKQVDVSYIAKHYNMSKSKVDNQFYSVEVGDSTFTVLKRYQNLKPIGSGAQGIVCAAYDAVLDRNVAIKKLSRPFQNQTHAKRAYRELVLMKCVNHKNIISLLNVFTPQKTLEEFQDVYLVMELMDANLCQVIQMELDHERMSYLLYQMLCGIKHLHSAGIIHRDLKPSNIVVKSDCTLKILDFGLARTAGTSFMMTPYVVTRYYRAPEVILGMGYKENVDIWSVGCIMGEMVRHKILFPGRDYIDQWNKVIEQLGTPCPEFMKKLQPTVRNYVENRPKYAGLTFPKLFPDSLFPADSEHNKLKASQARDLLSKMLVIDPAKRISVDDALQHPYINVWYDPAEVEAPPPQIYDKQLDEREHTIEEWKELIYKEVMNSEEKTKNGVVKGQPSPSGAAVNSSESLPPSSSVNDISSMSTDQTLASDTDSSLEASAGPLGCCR

[4] = system: Streptococcus sp. 'group A'; experiment: Streptococcus pyogenes SK(-)GAS viability under kanamycin – luminescence, BacTiterGlo, confirmation, counter-screen for streptokinase expression inhibitor project, dose response (AID 1900); format: functional, organism-based
[5] = biological target: T1, Streptokinase A (Streptococcus pyogenes serotype M1, UniProt P10520); experiment: viability-normalized secreted streptokinase activity reduction – plasminogen activation absorbance, OD405, dose response (AID 1914); format: functional, Streptococcus pyogenes M1 GAS;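 also: secreted streptokinase activity via plasminogen activation per viability signal from cell pellet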
T1 sequence (P10520 whole entry): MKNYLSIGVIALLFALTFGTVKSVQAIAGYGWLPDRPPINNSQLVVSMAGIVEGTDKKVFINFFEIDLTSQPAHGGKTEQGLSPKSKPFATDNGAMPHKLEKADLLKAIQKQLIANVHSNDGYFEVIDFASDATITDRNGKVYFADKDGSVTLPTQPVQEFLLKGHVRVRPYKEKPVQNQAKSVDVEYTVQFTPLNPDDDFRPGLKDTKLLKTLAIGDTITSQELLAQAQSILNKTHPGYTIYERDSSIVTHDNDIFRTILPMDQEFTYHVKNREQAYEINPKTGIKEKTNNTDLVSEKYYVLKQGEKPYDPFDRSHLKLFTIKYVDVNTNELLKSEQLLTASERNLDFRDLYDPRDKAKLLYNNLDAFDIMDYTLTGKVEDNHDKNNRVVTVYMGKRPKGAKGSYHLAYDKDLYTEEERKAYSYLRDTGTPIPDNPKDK

[6] = biological target: T2, Estrogen receptor beta (Homo sapiens, UniProt Q92731);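 also: recombinant ER-beta bound to coactivator SRC1 peptide in presence of estradiol agonist; inhibitors block coactivator peptide binding and lower the FRET signal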
T2 sequence (Q92731 whole entry): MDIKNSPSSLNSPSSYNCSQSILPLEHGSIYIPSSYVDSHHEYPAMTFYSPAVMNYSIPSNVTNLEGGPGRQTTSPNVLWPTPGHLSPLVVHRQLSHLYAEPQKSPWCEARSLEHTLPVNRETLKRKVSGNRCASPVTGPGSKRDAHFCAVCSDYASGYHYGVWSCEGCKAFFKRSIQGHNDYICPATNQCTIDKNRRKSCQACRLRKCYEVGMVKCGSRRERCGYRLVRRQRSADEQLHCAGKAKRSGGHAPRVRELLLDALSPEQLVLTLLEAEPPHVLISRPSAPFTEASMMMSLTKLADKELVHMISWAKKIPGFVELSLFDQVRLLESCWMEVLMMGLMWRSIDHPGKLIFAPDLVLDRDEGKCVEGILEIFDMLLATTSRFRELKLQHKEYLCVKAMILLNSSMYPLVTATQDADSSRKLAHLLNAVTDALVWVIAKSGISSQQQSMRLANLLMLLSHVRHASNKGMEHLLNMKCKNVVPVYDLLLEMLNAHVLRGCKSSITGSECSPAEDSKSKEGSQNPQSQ

[7] = biological target: T2, Estrogen receptor beta; experiment: blockers of SRC-3 recruitment to ERβ – biochemical, ELISA, streptavidin-HRP readout, orthogonal assay, confirmation (AID 1060)
[8] = system: Streptococcus; experiment: GAS UMAA2166 growth inhibition – luminescence, BacTiterGlo, counter-screen for streptokinase expression inhibitor project, dose response (AID 1915); format: functional, organism-based;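 also: potency for reduction of bacterial viability or growth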
[9] = biological target: T3, Long-chain-fatty-acid--AMP ligase FadD28 (Mycobacterium tuberculosis, UniProt P9WQ59); experiment: Fluorescence polarization aasay to screen for inhibitors that compete for the binding of FadD28 to a bisubstrate Measured in Biochemical System Using Plate Reader - 2147-01_Inhibitor_Dose_CherryPick_Activity.; format: functional, Mycobacterium tuberculosis H37Rv
T3 sequence (P9WQ59 whole entry): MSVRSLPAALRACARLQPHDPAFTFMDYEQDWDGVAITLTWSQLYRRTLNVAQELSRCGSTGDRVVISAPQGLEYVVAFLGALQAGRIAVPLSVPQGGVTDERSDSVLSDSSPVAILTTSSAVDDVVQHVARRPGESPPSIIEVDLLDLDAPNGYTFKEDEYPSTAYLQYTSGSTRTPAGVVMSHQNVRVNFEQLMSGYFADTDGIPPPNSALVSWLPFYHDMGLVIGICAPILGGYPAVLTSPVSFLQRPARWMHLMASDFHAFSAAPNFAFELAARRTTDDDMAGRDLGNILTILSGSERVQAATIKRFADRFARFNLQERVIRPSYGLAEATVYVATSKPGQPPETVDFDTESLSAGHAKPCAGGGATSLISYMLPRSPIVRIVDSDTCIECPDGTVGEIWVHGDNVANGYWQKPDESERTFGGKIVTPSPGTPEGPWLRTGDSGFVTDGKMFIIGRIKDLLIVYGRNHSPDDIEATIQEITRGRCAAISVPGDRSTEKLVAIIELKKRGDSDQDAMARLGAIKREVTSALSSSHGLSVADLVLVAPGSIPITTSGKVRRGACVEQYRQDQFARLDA

[10] = biological target: T4, Aryl hydrocarbon receptor (Homo sapiens, UniProt P35869); experiment: Luminescence-based cell-based high throughput dose response assay for activators of the Aryl Hydrocarbon Receptor (AHR). [Related pubchem assays: 2796 (Primary screen (AHR activators in singlicate)), 2845 (Confirmation screen (AHR activators in triplicate)), 434939 (Counterscreen (PXR activators in triplicate)), 2804 (Summary (AHR activators))]; format: ADME
T4 sequence (P35869 whole entry): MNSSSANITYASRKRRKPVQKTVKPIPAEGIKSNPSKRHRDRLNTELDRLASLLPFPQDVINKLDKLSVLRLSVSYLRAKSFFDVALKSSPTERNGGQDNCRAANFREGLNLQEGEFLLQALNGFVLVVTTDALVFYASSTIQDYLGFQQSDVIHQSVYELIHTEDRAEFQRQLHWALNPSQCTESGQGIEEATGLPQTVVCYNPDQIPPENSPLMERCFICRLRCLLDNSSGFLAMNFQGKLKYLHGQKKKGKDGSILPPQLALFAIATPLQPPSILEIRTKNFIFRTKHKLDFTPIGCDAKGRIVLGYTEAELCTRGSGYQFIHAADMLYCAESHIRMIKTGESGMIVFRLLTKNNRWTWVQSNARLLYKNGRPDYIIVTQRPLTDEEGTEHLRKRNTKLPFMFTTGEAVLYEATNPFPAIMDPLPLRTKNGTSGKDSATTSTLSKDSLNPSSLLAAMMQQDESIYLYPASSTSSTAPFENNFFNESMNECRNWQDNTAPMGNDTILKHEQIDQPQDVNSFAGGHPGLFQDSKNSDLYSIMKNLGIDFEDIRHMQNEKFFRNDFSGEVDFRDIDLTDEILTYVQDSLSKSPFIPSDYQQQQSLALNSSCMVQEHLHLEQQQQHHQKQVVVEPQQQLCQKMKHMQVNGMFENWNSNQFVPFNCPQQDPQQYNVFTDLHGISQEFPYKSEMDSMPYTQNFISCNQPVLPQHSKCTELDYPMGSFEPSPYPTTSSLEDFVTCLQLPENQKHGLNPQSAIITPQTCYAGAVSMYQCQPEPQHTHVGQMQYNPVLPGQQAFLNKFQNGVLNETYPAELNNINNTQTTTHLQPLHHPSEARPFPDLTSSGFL

[11] = HIV-1 Vif–A3G interaction blockers – biochemical, TR-FRET, GST-Vif 1-94, biotin-A3G peptide, dose response retest, primary screen (AID 1117319); format: functional;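 also: TR-FRET signal of purified GST-Vif binding a biotinylated A3G peptide; inhibitors lower the FRET signal by blocking Vif and A3G binding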
[12] = biological target: T5, Corticotropin-releasing factor receptor 2/Corticotropin-releasing factor-binding protein (Homo sapiens, UniProt P24387+Q13324); experiment: activators of CRF receptor 2 with binding protein – uHTS hits, confirmation (AID 602473); format: functional; conditions: read-out: EC50_Mean
T5 sequence (Q13324 whole entry): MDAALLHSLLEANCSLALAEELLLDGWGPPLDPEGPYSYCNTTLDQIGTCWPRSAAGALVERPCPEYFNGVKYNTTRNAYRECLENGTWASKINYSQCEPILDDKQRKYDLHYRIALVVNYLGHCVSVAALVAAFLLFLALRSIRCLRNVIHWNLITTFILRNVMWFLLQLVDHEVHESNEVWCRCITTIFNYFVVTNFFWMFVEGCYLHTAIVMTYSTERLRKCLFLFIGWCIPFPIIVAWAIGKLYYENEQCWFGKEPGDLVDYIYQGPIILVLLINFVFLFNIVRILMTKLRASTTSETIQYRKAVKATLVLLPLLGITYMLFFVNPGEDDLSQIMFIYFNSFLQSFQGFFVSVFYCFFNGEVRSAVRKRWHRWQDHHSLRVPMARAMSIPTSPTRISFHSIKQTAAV
T5 sequence (P24387 whole entry): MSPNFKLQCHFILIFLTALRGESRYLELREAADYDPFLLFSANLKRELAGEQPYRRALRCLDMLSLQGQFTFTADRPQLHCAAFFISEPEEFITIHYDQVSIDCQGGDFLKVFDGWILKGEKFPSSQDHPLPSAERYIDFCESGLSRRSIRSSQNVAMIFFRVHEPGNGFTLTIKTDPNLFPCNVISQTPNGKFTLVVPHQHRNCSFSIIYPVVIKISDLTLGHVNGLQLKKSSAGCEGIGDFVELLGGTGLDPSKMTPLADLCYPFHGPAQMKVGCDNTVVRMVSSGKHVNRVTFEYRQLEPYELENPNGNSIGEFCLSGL

[13] = biological target: Endoplasmic reticulum aminopeptidase 1 (Homo sapiens, UniProt Q9NZ08); experiment: inhibition of human ERAP1 enzyme activity – biochemical, cherry-pick, set 2, plate reader, dose response (AID 743314)
Endoplasmic reticulum aminopeptidase 1, sequence (Q9NZ08 whole entry): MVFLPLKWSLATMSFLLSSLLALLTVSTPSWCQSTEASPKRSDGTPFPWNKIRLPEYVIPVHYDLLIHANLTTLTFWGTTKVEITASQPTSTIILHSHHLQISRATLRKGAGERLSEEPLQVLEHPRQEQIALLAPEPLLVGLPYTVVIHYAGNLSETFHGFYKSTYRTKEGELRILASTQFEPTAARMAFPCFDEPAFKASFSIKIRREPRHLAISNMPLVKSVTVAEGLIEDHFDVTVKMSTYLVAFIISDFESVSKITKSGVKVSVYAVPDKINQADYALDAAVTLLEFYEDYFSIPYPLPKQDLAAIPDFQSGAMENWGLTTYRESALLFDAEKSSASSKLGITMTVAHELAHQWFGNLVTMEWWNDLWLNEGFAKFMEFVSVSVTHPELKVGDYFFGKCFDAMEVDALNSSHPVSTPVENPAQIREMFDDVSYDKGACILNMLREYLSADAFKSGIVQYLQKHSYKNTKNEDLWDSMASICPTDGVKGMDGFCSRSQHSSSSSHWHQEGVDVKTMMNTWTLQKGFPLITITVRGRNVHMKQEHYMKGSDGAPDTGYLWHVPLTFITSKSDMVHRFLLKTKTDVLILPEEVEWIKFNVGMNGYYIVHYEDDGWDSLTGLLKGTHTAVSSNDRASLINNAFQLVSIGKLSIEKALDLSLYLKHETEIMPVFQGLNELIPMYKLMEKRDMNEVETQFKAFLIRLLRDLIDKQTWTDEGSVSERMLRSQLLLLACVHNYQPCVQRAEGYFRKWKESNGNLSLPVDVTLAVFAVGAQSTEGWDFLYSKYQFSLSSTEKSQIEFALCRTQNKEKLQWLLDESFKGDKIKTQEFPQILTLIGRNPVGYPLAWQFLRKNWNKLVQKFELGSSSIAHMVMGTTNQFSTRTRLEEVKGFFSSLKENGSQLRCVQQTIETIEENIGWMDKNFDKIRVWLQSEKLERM

[14] = general mammalian cell viability loss – inhibitor set, cherry-pick, set 2, cytotoxicity control for miR-122 modulator project, dose response (AID 720697); format: functional, cell-based
[15] = biological target: Nonstructural protein 1 (Influenza A virus, UniProt Q194T2); format: functional, Influenza A virus (A/California/07/2009(H1N1))
Nonstructural protein 1, sequence (Q194T2 whole entry): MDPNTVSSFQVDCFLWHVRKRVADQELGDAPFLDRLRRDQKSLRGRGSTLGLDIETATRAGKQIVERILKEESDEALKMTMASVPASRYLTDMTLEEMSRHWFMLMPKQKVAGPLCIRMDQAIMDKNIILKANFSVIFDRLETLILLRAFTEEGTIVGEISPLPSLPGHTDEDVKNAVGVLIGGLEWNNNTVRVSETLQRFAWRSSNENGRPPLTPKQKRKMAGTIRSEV

[16] = biological target: T6, Histone-lysine N-methyltransferase NSD2 (Homo sapiens, UniProt O96028); format: biochemical
T6 sequence (O96028 whole entry): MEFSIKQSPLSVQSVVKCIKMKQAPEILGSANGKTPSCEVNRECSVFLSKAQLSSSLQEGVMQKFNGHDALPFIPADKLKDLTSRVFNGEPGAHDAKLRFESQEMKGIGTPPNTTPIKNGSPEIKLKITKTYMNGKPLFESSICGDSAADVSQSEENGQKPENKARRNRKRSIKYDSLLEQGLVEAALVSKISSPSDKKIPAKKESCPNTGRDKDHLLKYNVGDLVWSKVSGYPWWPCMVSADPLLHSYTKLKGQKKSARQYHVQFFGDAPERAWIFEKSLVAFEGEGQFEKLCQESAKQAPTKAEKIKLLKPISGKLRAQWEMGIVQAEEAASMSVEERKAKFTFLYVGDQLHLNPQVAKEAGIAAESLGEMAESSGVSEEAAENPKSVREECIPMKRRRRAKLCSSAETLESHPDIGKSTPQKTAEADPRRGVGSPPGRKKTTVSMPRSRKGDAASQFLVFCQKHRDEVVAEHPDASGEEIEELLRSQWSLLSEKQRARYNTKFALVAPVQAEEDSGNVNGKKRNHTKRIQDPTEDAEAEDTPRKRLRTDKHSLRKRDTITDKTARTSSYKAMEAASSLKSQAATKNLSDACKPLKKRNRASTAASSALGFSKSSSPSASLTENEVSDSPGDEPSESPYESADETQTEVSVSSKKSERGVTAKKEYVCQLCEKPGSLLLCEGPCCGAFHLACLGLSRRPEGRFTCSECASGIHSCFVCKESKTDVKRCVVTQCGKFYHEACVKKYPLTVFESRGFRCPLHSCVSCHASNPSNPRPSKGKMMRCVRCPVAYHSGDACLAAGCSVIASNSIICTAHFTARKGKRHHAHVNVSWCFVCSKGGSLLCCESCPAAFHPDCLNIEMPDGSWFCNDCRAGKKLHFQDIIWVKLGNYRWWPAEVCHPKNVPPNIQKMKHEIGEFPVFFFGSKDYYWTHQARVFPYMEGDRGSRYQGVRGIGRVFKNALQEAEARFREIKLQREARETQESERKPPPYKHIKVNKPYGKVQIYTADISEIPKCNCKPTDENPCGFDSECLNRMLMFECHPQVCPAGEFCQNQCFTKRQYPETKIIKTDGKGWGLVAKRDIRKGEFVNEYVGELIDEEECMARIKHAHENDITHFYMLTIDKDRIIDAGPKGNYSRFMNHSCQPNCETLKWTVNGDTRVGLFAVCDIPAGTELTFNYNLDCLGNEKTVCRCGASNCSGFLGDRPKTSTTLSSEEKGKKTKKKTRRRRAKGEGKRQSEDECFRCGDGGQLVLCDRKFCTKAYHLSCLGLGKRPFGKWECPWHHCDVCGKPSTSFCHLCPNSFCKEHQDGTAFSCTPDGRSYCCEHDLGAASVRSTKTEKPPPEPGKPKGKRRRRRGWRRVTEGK

Beta-galactosidase, sequence (Q8VNN2 whole entry): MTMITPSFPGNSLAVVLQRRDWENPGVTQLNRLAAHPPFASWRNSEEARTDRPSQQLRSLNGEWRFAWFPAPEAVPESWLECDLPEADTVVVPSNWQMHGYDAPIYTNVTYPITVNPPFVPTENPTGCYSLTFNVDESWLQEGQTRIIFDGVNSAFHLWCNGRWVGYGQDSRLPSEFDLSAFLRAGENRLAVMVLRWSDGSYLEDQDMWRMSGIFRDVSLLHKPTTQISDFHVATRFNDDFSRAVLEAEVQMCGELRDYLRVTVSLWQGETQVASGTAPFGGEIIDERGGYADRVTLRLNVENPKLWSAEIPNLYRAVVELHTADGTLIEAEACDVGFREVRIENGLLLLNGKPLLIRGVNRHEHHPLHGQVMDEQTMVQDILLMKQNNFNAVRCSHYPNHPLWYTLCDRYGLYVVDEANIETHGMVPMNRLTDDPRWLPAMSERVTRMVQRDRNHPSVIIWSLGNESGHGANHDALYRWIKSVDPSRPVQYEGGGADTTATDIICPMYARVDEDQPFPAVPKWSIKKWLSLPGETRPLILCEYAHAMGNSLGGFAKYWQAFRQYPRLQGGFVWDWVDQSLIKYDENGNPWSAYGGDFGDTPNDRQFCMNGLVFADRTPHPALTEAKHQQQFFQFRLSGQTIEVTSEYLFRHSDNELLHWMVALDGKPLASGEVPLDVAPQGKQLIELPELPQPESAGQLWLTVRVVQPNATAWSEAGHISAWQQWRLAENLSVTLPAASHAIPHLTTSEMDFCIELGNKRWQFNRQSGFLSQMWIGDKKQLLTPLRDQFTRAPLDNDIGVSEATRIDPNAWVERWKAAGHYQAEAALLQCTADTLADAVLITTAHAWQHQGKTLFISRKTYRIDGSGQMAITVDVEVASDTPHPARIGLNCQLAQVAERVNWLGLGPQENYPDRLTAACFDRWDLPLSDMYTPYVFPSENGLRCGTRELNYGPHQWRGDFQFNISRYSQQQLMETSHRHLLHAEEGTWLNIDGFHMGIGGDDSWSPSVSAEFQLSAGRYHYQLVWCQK

With `Cc1ccc(Cl)cc1N1CCN(C(=O)c2cc3c(O)nc4ccccc4c3n2C)CC1` the IC50 [1] was > 80 µM (inactive).

For `O=C(c1ccc(N2CCCCC2)c([N+](=O)[O-])c1)N(c1ccccn1)c1ccccn1`, the IC50 [2] was > 50 µM (not active).

For `FC(F)(F)c1ccc(Oc2ccc3cc(Br)ccc3c2)nc1`, the IC50 [1] was > 80 µM (inactive).

With `O=C(NCc1nc2ncc(Br)cc2[nH]1)c1ccccc1` the IC50 [3] was 38.3 µM (not active).

With `Cc1ccnc(NC(=O)C2CCCN(S(=O)(=O)c3c[nH]cn3)C2)c1` (stereo unspecified) the IC50 [2] was > 50 µM (not active).

In the case of `CCOC(=O)c1c(NS(=O)(=O)c2ccc(Br)cc2)sc2c1CCC2`, the EC50 [4] was 2.1 µM (active), the EC50 [5] was > 150 µM (not active) and the IC50 [6] was > 50 µM (not active). The IC50 [7] was > 50 µM (not active), the EC50 [8] was 4.07 µM (active) and the AC50 [9] was > 100 µM (inactive).

With `Cn1c(C(=O)N2CCC(C(N)=O)CC2)cc2cc(Cl)ccc21` the EC50 [10] was 0.91 µM (active).

For `O=C(Nc1ccccc1N1CCOCC1)c1ccc2[nH]cnc2c1`, the IC50 [2] was 6.87 µM (active).

For `O=C(CN1C(=O)CSC1=O)Nc1ccccc1N1CCOCC1`, the IC50 [11] was > 100 µM (active).

For `Cc1cc(C)c2cc(C(=O)N3CCC(C(=O)c4ccc(F)cc4)CC3)[nH]c2c1`, the IC50 [1] was > 80 µM (inactive).

In the case of `Cc1ccc2oc(=O)c3cnn(CC(=O)N4CCN(c5ccccn5)CC4)c3c2c1`, the IC50 [3] was > 93.1 µM (not active).

In the case of `O=c1oc2c(CN3CCN(CCO)CC3)c(O)ccc2cc1-c1ccccn1`, the EC50 [12] was 6.05 µM (active) and the AC50 [13] was 1.46 µM (active).

With `Oc1ccc(O)c(C=NNC(=S)NC2CC3CC2C2C=CCC32)c1` (stereo unspecified) the AC50 [9] was > 100 µM (inactive).

With `COCC(=O)Nc1sc2c(c1C(=O)OC)C(C(=O)OC)CC2` (stereo unspecified) the IC50 [11] was > 100 µM (active).

With `COc1cccc(CNC(=O)[C@H]2N[C@H]3c4ccc(/C=C/c5ccccc5)c(=O)n4C[C@H]3[C@@H]2CO)c1` the AC50 [13] was 16.2 µM (active).

For `C[C@@H]1CN([C@@H](C)CO)S(=O)(=O)c2ccc(C3=CCCCC3)cc2O[C@@H]1CN(C)C(=O)Nc1ccc2c(c1)OCO2`, the AC50 [14] was 0.502 µM (active).

For `CCN1[C@H](C(=O)Nc2nccs2)[C@@H](CO)[C@@H]2Cn3c(ccc(/C=C/c4ccccc4)c3=O)[C@@H]21`, the AC50 [13] was 19 µM (active).

For `O=[N+]([O-])c1ccccc1/C=C\C=N\N1CCN(c2ccccc2)CC1`, the IC50 [15] was 59.2 µM (active) and the AC50 [16] was > 20 µM (inactive).

With `Cc1ccc(/C(=N/Nc2nc3ccccc3s2)C2=C(O)c3ccccc3C2=O)cc1` the AC50 [9] was 41.1 µM (active).
